This is an account of results in patent publication US20160002247A1, “8-SUBSTITUTED IMIDAZOPYRIMIDINONE DERIVATIVE HAVING AUTOTAXIN INHIBITORY ACTIVITY” (THE UNIVERSITY OF TOKYO, priority 2013, published 2016).

Molecules are shown by their SMILES. Read-outs that look alike come from different tables or passages of the source.

In this experiment the target is T1, Human autotaxin enzyme (Homo sapiens, UniProt Q13822).
T1 construct: purchased R&D System
The experiment in a line: Evaluation of autotaxin inhibitor, Method C (Test Example 3): 18:0 Lyso PC, choline assay, Resorufin fluorescence. Format: biochemical. The note with it: human autotaxin, 18:0 Lyso PC substrate. Summed up: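 Human autotaxin in Tris-HCl pH 7.5, 150 mM NaCl, 5 mM MgCl2, 0.05% Triton X-100 reacted 2 h at room temperature with 18:0 Lyso PC (200 μM solution added). Released choline detected via choline oxidase/peroxidase/Amplex-type reagent, resorufin fluorescence (ex 531/em 598 nm); inhibition vs no-compound and no-enzyme controls, concentration-response curve.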

[1] abbreviates: Assay Method C (Test Example 3), read-out: Inhibitory Activity (autotaxin enzyme inhibitory activity, IC50 class).
Where [2] appears, read: Assay Method C, read-out: Inhibitory Activity.

For the compound `CCCCCn1c(N2CCC[C@H]2C(=O)N[C@H](CC)C(=O)O)cc(=O)n2cc(-c3ccc(Cl)cc3)nc12` [Compound 739], the IC50 under setting [1] was less than 10 nM.
Consider `Cn1c(N2C[C@H](O)C[C@H]2C(=O)NC(C)(C)C(=O)O)cc(=O)n2cc(-c3ccc(Cl)cc3)nc12` [Compound 781], for which the IC50 under setting [2] was greater than 1000 nM.
With `CCCCCn1c(-c2ccc(SC)cc2)cc(=O)n2cc(-c3ccc(Cl)cc3)nc12` [Compound 432], the IC50 under setting [1] was 100 to 1000 nM.
As for `O=C(O)[C@H](CCc1ccccc1)NC(=O)[C@@H]1CCCN1c1cc(=O)n2cc(-c3ccc(Cl)cc3)nc2n1Cc1ccccc1` [Compound 745], the IC50 under setting [1] was less than 10 nM.
The same measure, in the same setting: with `CCCCCn1c(-c2ccc(C(=O)N3CCC(O)CC3)cc2)cc(=O)n2cc(-c3ccc(Cl)cc3)nc12` [Compound 472] the figure was 10 to 100 nM; with `CCCCCn1c(N2CCC[C@@]2(C)C(=O)NCCC(=O)O)cc(=O)n2cc(-c3ccc(Cl)cc3)nc12` [Compound 623], 100 to 1000 nM; with `CCCCCn1c(N2CCC[C@H]2C(=O)N[C@@H]2CNC(=O)C2)cc(=O)n2cc(-c3ccc(Cl)cc3)nc12` [Compound 705], 100 to 1000 nM.
Same read-out and setting: in the case of `NC(=O)c1ccc(-c2cc(=O)n3cc([C@H]4CC[C@H](C(F)(F)F)CC4)nc3n2CCCC(F)(F)F)cc1` [Compound 136, 4-(5-oxo-8-(4,4,4-trifluorobutyl)-2-((1r,4r)-4-(trifluoromethyl)cyclohexyl)-5,8-dihydroimidazo[1,2-a]pyrimidine-7-yl)benzamide] it was 100 to 1000 nM; in that of `CCCCCn1c(-c2cnc(C(=O)NCCC(=O)O)nc2)cc(=O)n2cc(-c3ccc(Cl)cc3)nc12` [Compound 536], less than 10 nM.
As for `CCCCCn1c(-c2ccc(C(=O)NCCNCCO)cc2)cc(=O)n2cc(-c3ccc(Cl)cc3)nc12` [Compound 817], the IC50 under setting [2] was less than 10 nM.
Take `CCCCCn1c(N2CCC[C@H]2C(=O)N[C@@H](CCc2ccccc2)C(=O)O)cc(=O)n2cc(-c3ccc(Cl)cc3)nc12` [Compound 735]: the IC50 under setting [1] is less than 10 nM.
On the same count and under the same terms, in the case of `CCCCCn1c(N2CCCC2c2ccccc2)cc(=O)n2cc(-c3ccc(Cl)cc3)nc12` (stereo not drawn) [Compound 306] it was 10 to 100 nM.
In the case of `CONC(=O)Cc1cn(CCCC(F)(F)F)c2nc(-c3ccc(Cl)cc3)cn2c1=O` [Compound 845], the IC50 under setting [2] fell in the range of 100 to 1000 nM.
Consider `CCCCCn1c(N2CCCC[C@@H]2C(=O)O)cc(=O)n2cc(-c3ccc(Cl)cc3)nc12` [Compound 612], for which, under setting [1], the IC50 was 100 to 1000 nM.
As for `CCCCCn1c(N2CCC[C@H]2C(=O)N(C)CC(=O)O)cc(=O)n2cc(-c3ccc(Cl)cc3)nc12` [Compound 353], the IC50 under setting [1] is less than 10 nM.
Take `O=C(O)Cc1cn(CCCC(F)(F)F)c2nc(-c3ccc(Cl)cc3)cn2c1=O` [Compound 827]: the IC50 under setting [2] was greater than 1000 nM.
With `CCCCCn1c(-c2ccc(C(=O)N3CCS(=O)(=O)CC3)cc2)cc(=O)n2cc(-c3ccc(Cl)cc3)nc12` [Compound 492], the IC50 under setting [1] lay in the range of 10 to 100 nM.
With `N#CCCCNC(=O)Cc1cn(CCCC(F)(F)F)c2nc(-c3ccc(Cl)cc3)cn2c1=O` [Compound 832], the IC50 under setting [2] was greater than 1000 nM.
Still for that read-out and setting: with `C#CCNC(=O)C1CCCCN1c1cc(=O)n2cc(-c3ccc(Cl)cc3)nc2n1CCCCC` (stereo not drawn) [Compound 807] the figure was 10 to 100 nM.
With `CCCCCn1c(N2CCC[C@@H](C(=O)NCC(=O)O)C2)cc(=O)n2cc(-c3ccc(Cl)cc3)nc12` [Compound 636], under setting [1], the IC50 lay within 10 to 100 nM.
Still for that read-out and setting: in the case of `CCCCCn1c(N2CCC[C@H]2CC(=O)O)cc(=O)n2cc(-c3ccc(Cl)cc3)nc12` [Compound 599] it was 10 to 100 nM.
Regarding `CN(CCC#N)C(=O)Cc1cn(CCCC(F)(F)F)c2nc(-c3ccc(Cl)cc3)cn2c1=O` [Compound 831], under setting [2], the IC50 is 100 to 1000 nM.
Consider `CCCCCn1c(N2CCC[C@H]2C(=O)NCCN2CCCC2=O)cc(=O)n2cc(-c3ccc(Cl)cc3)nc12` [Compound 341], for which the IC50 under setting [1] was 10 to 100 nM.
On to `CCCCCn1c(N2CCC3CNCC32)cc(=O)n2cc(-c3ccc(Cl)cc3)nc12` (stereo not drawn) [Compound 329], for which the IC50 under setting [1] fell in the range of 100 to 1000 nM.
Still for that read-out and setting: with `CCCCCn1c(N2CCCC(CNC(=O)OC(C)(C)C)C2)cc(=O)n2cc(-c3ccc(Cl)cc3)nc12` (stereo not drawn) [Compound 311] the figure was 100 to 1000 nM.
Still for that read-out and setting: with `CCCCCn1c(O[C@H]2CCN(CC(=O)OC(C)(C)C)C2)cc(=O)n2cc(-c3ccc(Cl)cc3)nc12` [Compound 573] the figure was 10 to 100 nM.
Consider `CCC(CO)(CO)NC(=O)Cc1cn(CCCC(F)(F)F)c2nc(-c3ccc(Cl)cc3)cn2c1=O` [Compound 861], for which the IC50 under setting [2] was in the range of 10 to 100 nM.
Consider `CCCCCn1c(-c2ccc(C(=O)NC3CCOC3=O)cc2)cc(=O)n2cc(-c3ccc(Cl)cc3)nc12` (stereo not drawn) [Compound 502], for which, under setting [1], the IC50 is 10 to 100 nM.
Still for that read-out and setting: in the case of `CCCCCn1c(N2CCC[C@H]2C(=O)N[C@@H](Cc2c[nH]cn2)C(=O)O)cc(=O)n2cc(-c3ccc(Cl)cc3)nc12` [Compound 721] it was 10 to 100 nM; in that of `CCCCCn1c(O[C@H]2CCN(CCC(=O)OC(C)(C)C)C2)cc(=O)n2cc(-c3ccc(Cl)cc3)nc12` [Compound 578], 10 to 100 nM.
For `CCCCCn1c(N2CCC[C@H]2C(=O)Nc2cccc(-c3nn[nH]n3)c2)cc(=O)n2cc(-c3ccc(Cl)cc3)nc12` [Compound 787], the IC50 under setting [2] lay within 100 to 1000 nM.
`CCCCCn1c(-c2ccc(C(=O)NCCc3cncn3C)cc2)cc(=O)n2cc(-c3ccc(Cl)cc3)nc12` [Compound 511]: the IC50 under setting [1] lay in the range of 10 to 100 nM.
On to `CCCCCn1c(N2CCC[C@H]2C(=O)Oc2cc(N)ccc2OC)cc(=O)n2cc(-c3ccc(Cl)cc3)nc12` [Compound 801], for which, under setting [2], the IC50 lay in the range of 100 to 1000 nM.
Regarding `CCCCCn1c(C2=CCN(C(C)=O)CC2)cc(=O)n2cc(-c3ccc(Cl)cc3)nc12` [Compound 546], the IC50 under setting [1] was 10 to 100 nM.
Turning to `CCCCCn1c(N2CCC[C@H]2C(=O)N[C@H](C)C(=O)O)cc(=O)n2cc(-c3ccc(Cl)cc3)nc12` [Compound 678], under setting [1], the IC50 lay in the range of 10 to 100 nM.
Regarding `CCCCCn1c(N2CCN(C(=O)OC(C)(C)C)C(C(=O)NCCC(=O)O)C2)cc(=O)n2cc(-c3ccc(Cl)cc3)nc12` (stereo not drawn) [Compound 614], the IC50 under setting [1] fell in the range of 100 to 1000 nM.
The same measure, in the same setting: with `CCCCCn1c(O[C@H]2C[C@@H](NC(=O)OC(C)(C)C)C2)cc(=O)n2cc(-c3ccc(Cl)cc3)nc12` [Compound 551] the figure was 100 to 1000 nM; with `CCCCCn1c(N2CCN(C(=O)OC(C)(C)C)C[C@@H]2C(=O)NCC(=O)O)cc(=O)n2cc(-c3ccc(Cl)cc3)nc12` [Compound 631], 100 to 1000 nM; with `CCCCCn1c(-c2ccc(C(=O)NCCC)cc2)cc(=O)n2cc(-c3ccc(Cl)cc3)nc12` [Compound 478], 10 to 100 nM.
Still for that read-out and setting: with `CCCCCn1c(N2CCC[C@@H]2CC(=O)O)cc(=O)n2cc(-c3ccc(Cl)cc3)nc12` [Compound 605] the figure was 100 to 1000 nM.
Consider `CCCCCn1c(N2CCC[C@H]2C(=O)NCCN2CCCC2)cc(=O)n2cc(-c3ccc(Cl)cc3)nc12` [Compound 647], for which the IC50 under setting [1] is greater than 1000 nM.
The same measure, in the same setting: with `CCCCCn1c(-c2cccc(NS(C)(=O)=O)c2)cc(=O)n2cc(-c3ccc(Cl)cc3)nc12` [Compound 441] the figure was 100 to 1000 nM; with `CCCCCn1c(N2C[C@H](O)C[C@H]2C(=O)NC(C)(C)CC(=O)O)cc(=O)n2cc(-c3ccc(Cl)cc3)nc12` [Compound 585], less than 10 nM.
Regarding `CCCCCn1c(-c2ccc(C(=O)NCCNC3CCS(=O)(=O)C3)cc2)cc(=O)n2cc(-c3ccc(Cl)cc3)nc12` (stereo not drawn) [Compound 524], the IC50 under setting [1] was in the range of 10 to 100 nM.
Consider `CN(CC#N)C(=O)Cc1cn(CCCC(F)(F)F)c2nc(-c3ccc(Cl)cc3)cn2c1=O` [Compound 834], for which the IC50 under setting [2] lay in the range of 100 to 1000 nM.
For the compound `CCCCCn1c(-c2ccc(C(=O)NC3CN(C)C3)cc2)cc(=O)n2cc(-c3ccc(Cl)cc3)nc12` [Compound 489], under setting [1], the IC50 lay in the range of 10 to 100 nM.
The same measure, in the same setting: in the case of `CCCCCn1c(N2C[C@@H](O)C[C@H]2C(=O)N[C@@H](C)C(=O)O)cc(=O)n2cc(-c3ccc(Cl)cc3)nc12` [Compound 779] it was less than 10 nM; in that of `CCCCCn1c(N2CCC[C@H]2C(=O)N[C@H](C(=O)O)C(C)(C)C)cc(=O)n2cc(-c3ccc(Cl)cc3)nc12` [Compound 722], less than 10 nM.
For `CCCCCn1c(N2CCC(NS(C)(=O)=O)CC2)cc(=O)n2cc(-c3ccc(Cl)cc3)nc12` [Compound 298], the IC50 under setting [1] is 100 to 1000 nM.
The same measure, in the same setting: with `CCCCCn1c(N2C[C@H](O)C[C@H]2C(=O)O)cc(=O)n2cc(-c3ccc(Cl)cc3)nc12` [Compound 589] the figure was greater than 1000 nM.
The same measure, in the same setting: with `CCCCCn1c(N2C[C@@H](O)C[C@H]2C(=O)NCC(=O)O)cc(=O)n2cc(-c3ccc(Cl)cc3)nc12` [Compound 776] the figure was less than 10 nM.
For the compound `CCCCCn1c(N2CCC[C@H]2C(=O)Nc2nonc2OC)cc(=O)n2cc(-c3ccc(Cl)cc3)nc12` [Compound 794], under setting [2], the IC50 is 10 to 100 nM.
With `CCCCCn1c(O[C@H]2CCN(C(=O)OC(C)(C)C)C2)cc(=O)n2cc(-c3ccc(Cl)cc3)nc12` [Compound 549], the IC50 under setting [1] was 10 to 100 nM.
As to `CCCCCn1c(N2CCC[C@H]2C(=O)NC[C@H](O)C(F)(F)F)cc(=O)n2cc(-c3ccc(Cl)cc3)nc12` [Compound 792], under setting [2], the IC50 was 100 to 1000 nM.
Turning to `CCCCCn1c(-c2ccc(C(=O)O)cc2)cc(=O)n2cc(-c3ccc(Cl)cc3)nc12` [Compound 362, 4-(2-(4-chlorophenyl)-5-oxo-8-pentyl-5,8-dihydroimidazo[1,2-a]pyrimidin-7-yl)benzoic acid], the IC50 under setting [1] was in the range of 10 to 100 nM.
Still for that read-out and setting: in the case of `CCCCCn1c(N2CCC3(COC3)C2)cc(=O)n2cc(-c3ccc(Cl)cc3)nc12` [Compound 715] it was 10 to 100 nM.
`CCCCCn1c(N2CCCCC2CCN2CCOCC2)cc(=O)n2cc(-c3ccc(Cl)cc3)nc12` (stereo not drawn) [Compound 805]: under setting [2], the IC50 lay within 100 to 1000 nM.
As to `CCCCCn1c(N2CCCC(CC(=O)OCC)C2)cc(=O)n2cc(-c3ccc(Cl)cc3)nc12` (stereo not drawn) [Compound 315], the IC50 under setting [1] lay in the range of 100 to 1000 nM.
For `CCCCCn1c(N2CCC[C@H]2C(=O)NCCCC(=O)O)cc(=O)n2cc(-c3ccc(Cl)cc3)nc12` [Compound 354], the IC50 under setting [1] was less than 10 nM.
Take `N#CCCCCn1cc(Cc2cccc(C(=O)O)c2)c(=O)n2cc(-c3ccc(Cl)cc3)nc12` [Compound 824]: under setting [2], the IC50 was less than 10 nM.
